Reference: patent US10821115B2, “Compounds that inhibit Mcl-1 protein” (priority 2017, dated 2020)
Where two headings read alike, the source gives them in different places.

Key:
[1] = system: human multiple myeloma cell line, OPM-2; assay: Cell viability assay (OPM-2 10 FBS), CellTiter-Glo; format: cell-based
Method in brief: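 OPM-2 cells at 3000 cells/well in RPMI 1640 with 10% FBS were exposed to serially diluted compounds for 16 h at 37 °C, 5% CO2.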

[2] = biological target: recombinant human Mcl-1 (residues 171-327) / Bim interaction (Homo sapiens (Human), UniProt Q07820); assay: biochemical; format: binding; conditions: 0.1 nM Mcl-1(171-327), 0.05 nM biotin-Bim (51-76); read-out: Mcl-1 HTRF IC50
[3] = Homo sapiens, OPM-2, 16 h, read-out: OPM-2 10% FBS IC50 IP, OPM-2 cells, 10% FBS, 16 h incubation
[4] = read-out: OPM-2 10% FBS IC50 IP, OPM-2 cells, 10% FBS, 16 h incubation

Chain of recombinant human Mcl-1 (residues 171-327) / Bim interaction (Q07820 171-327): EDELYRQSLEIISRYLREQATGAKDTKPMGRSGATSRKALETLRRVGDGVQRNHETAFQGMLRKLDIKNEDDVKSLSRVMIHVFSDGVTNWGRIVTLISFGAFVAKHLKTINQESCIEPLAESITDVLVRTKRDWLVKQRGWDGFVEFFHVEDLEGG

SMILES	IC50 [1, 3]	IC50 [2]	IC50 [1, 4]
CO[C@]1(CN2CCCCC2)/C=C/C[C@H](C)[C@@H](C)S(=O)(=O)NC(=O)c2ccc3c(c2)N(C[C@@H]2CC[C@H]21)C[C@@]1(CCCc2cc(Cl)ccc21)CO3 [Example 74, (1S,3′R,6′R,7′R,8′E,11′S,12′R)-6-chloro-7′-methoxy-11′,12′-dimethyl-7′-(1-piperidinylmethyl)-3,4-dihydro-2H,15′H-spiro[naphthalene-1,22′-[20]oxa[13]thia[1,14]diazatetracyclo [14.7.2.0~3,6~.0~19,24~]pentacosa[8,16,18,24]tetraen]-15′-one 13′,13′-dioxide]	3360 nM	2.29 nM	
CO[C@@]1(CN2CCCCC2)/C=C/C[C@H](C)[C@@H](C)S(=O)(=O)NC(=O)c2ccc3c(c2)N(C[C@@H]2CC[C@H]21)C[C@@]1(CCCc2cc(Cl)ccc21)CO3 [Example 75, (1S,3′R,6′R,7′S,8′E,11′S,12′R)-6-chloro-7′-methoxy-11′,12′-dimethyl-7′-(1-piperidinylmethyl)-3,4-dihydro-2H,15′H-spiro[naphthalene-1,22′-[20]oxa[13]thia[1,14]diazatetracyclo [14.7.2.0~3,6~.0~19,24~]pentacosa[8,16,18,24]tetraen]-15′-one 13′,13′-dioxide]	1610 nM	2.05 nM	
CO[C@]1(CN2CCC2)/C=C/C[C@H](C)[C@@H](C)S(=O)(=O)NC(=O)c2ccc3c(c2)N(C[C@@H]2CC[C@H]21)C[C@@]1(CCCc2cc(Cl)ccc21)CO3 [Example 76, (1S,3′R,6′R,7′R,8′E,11′S,12′R)-7′-(1-azetidinylmethyl)-6-chloro-7′-methoxy-11′,12′-dimethyl-3,4-dihydro-2H,15′H-spiro[naphthalene-1,22′-[20]oxa[13]thia[1,14]diazatetracyclo [14.7.2.0~3,6~.0~19,24~]pentacosa[8,16,18,24]tetraen]-15′-one 13′,13′-dioxide]	670 nM	3.81 nM	
CO[C@@]1(CN2CCC2)/C=C/C[C@H](C)[C@@H](C)S(=O)(=O)NC(=O)c2ccc3c(c2)N(C[C@@H]2CC[C@H]21)C[C@@]1(CCCc2cc(Cl)ccc21)CO3 [Example 77, (1S,3′R,6′R,7′S,8′E,11′S,12′R)-7′-(1-azetidinylmethyl)-6-chloro-7′-methoxy-11′,12′-dimethyl-3,4-dihydro-2H,15′H-spiro[naphthalene-1,22′-[20]oxa[13]thia[1,14]diazatetracyclo [14.7.2.0~3,6~.0~19,24~]pentacosa[8,16,18,24]tetraen]-15′-one 13′,13′-dioxide]	415 nM	1.22 nM	
CO[C@]1(CN2C[C@H]3CN(C)C[C@H]3C2)/C=C/C[C@H](C)[C@@H](C)S(=O)(=O)NC(=O)c2ccc3c(c2)N(C[C@@H]2CC[C@H]21)C[C@@]1(CCCc2cc(Cl)ccc21)CO3 [Example 82]	520 nM	0.394 nM	
CO[C@]1(CN2CCN3CCC[C@@H]3C2)/C=C/C[C@H](C)[C@@H](C)S(=O)(=O)NC(=O)c2ccc3c(c2)N(C[C@@H]2CC[C@H]21)C[C@@]1(CCCc2cc(Cl)ccc21)CO3 [Example 83]		0.223 nM	245 nM
CO[C@]1(CN2CC(N3CCOCC3)C2)/C=C/C[C@H](C)[C@@H](C)S(=O)(=O)NC(=O)c2ccc3c(c2)N(C[C@@H]2CC[C@H]21)C[C@@]1(CCCc2cc(Cl)ccc21)CO3 [Example 84, (1S,3′R,6′R,7′R,8′E,11′S,12′R)-6-chloro-7′-methoxy-11′,12′-dimethyl-7′-((3-(4-morpholinyl)-1-azetidinyl)methyl)-3,4-dihydro-2H,15′H-spiro[naphthalene-1,22′-[20]oxa[13]thia[1,14]diazatetracyclo [14.7.2.0~3,6~.0~19,24~]pentacosa[8,16,18,24]tetraen]-15′-one 13′,13′-dioxide]	61 nM	0.106 nM	
CO[C@]1(CN2CCC(N3CCOCC3)CC2)/C=C/C[C@H](C)[C@@H](C)S(=O)(=O)NC(=O)c2ccc3c(c2)N(C[C@@H]2CC[C@H]21)C[C@@]1(CCCc2cc(Cl)ccc21)CO3 [Example 85, (1S,3′R,6′R,7′R,8′E,11′S,12′R)-6-chloro-7′-methoxy-11′,12′-dimethyl-7′-((4-(4-morpholinyl)-1-piperidinyl)methyl)-3,4-dihydro-2H,15′H-spiro[naphthalene-1,22′-[20]oxa[13]thia[1,14]diazatetracyclo [14.7.2.0~3,6~.0~19,24~]pentacosa[8,16,18,24]tetraen]-15′-one 13′,13′-dioxide]	274 nM	0.491 nM	
CO[C@]1(CN2CC[C@H]3CCCC[C@@H]3C2)/C=C/C[C@H](C)[C@@H](C)S(=O)(=O)NC(=O)c2ccc3c(c2)N(C[C@@H]2CC[C@H]21)C[C@@]1(CCCc2cc(Cl)ccc21)CO3 [Example 86]		3.9 nM	7950 nM
CCN1CCN(C[C@@]2(OC)/C=C/C[C@H](C)[C@@H](C)S(=O)(=O)NC(=O)c3ccc4c(c3)N(C[C@@H]3CC[C@H]32)C[C@@]2(CCCc3cc(Cl)ccc32)CO4)CC1 [Example 88, (1S,3′R,6′R,7′R,8′E,11′S,12′R)-6-chloro-7′-((4-ethyl-1-piperazinyl)methyl)-7′-methoxy-11′,12′-dimethyl-3,4-dihydro-2H,15′H-spiro[naphthalene-1,22′-[20]oxa[13]thia[1,14]diazatetracyclo [14.7.2.0~3,6~.0~19,24~]pentacosa[8,16,18,24]tetraen]-15′-one 13′,13′-dioxide]	74 nM	0.139 nM	
CO[C@]1(CN2CCN(C3CC3)CC2)/C=C/C[C@H](C)[C@@H](C)S(=O)(=O)NC(=O)c2ccc3c(c2)N(C[C@@H]2CC[C@H]21)C[C@@]1(CCCc2cc(Cl)ccc21)CO3 [Example 91, (1S,3′R,6′R,7′R,8′E,11′S,12′R)-6-chloro-7′-((4-cyclopropyl-1-piperazinyl)methyl)-7′-methoxy-11′,12′-dimethyl-3,4-dihydro-2H,15′H-spiro[naphthalene-1,22′-[20]oxa[13]thia[1,14]diazatetracyclo [14.7.2.0~3,6~.0~19,24~]pentacosa[8,16,18,24]tetraen]-15′-one 13′,13′-dioxide]	559 nM	0.203 nM	
CO[C@]1(CN2CCN(C3CCC3)CC2)/C=C/C[C@H](C)[C@@H](C)S(=O)(=O)NC(=O)c2ccc3c(c2)N(C[C@@H]2CC[C@H]21)C[C@@]1(CCCc2cc(Cl)ccc21)CO3 [Example 92, (1S,3′R,6′R,7′R,8′E,11′S,12′R)-6-chloro-7′-((4-cyclobutyl-1-piperazinyl)methyl)-7′-methoxy-11′,12′-dimethyl-3,4-dihydro-2H,15′H-spiro[naphthalene-1,22′-[20]oxa[13]thia[1,14]diazatetracyclo [14.7.2.0~3,6~.0~19,24~]pentacosa[8,16,18,24]tetraen]-15′-one 13′,13′-dioxide]	199 nM	0.143 nM	
COCCN(C)C1CN(C[C@@]2(OC)/C=C/C[C@H](C)[C@@H](C)S(=O)(=O)NC(=O)c3ccc4c(c3)N(C[C@@H]3CC[C@H]32)C[C@@]2(CCCc3cc(Cl)ccc32)CO4)C1 [Example 94, (1S,3′R,6′R,7′R,8′E,11′S,12′R)-6-chloro-7′-methoxy-7′-((3-((2-methoxyethyl)(methyl)amino)-1-azetidinyl)methyl)-11′,12′-dimethyl-3,4-dihydro-2H,15′H-spiro[naphthalene-1,22′-[20]oxa[13]thia[1,14]diazatetracyclo [14.7.2.0~3,6~.0~19,24~]pentacosa[8,16,18,24]tetraen]-15′-one 13′,13′-dioxide]	140 nM	0.191 nM	
CO[C@]1(CN2CCN(CC(F)F)CC2)/C=C/C[C@H](C)[C@@H](C)S(=O)(=O)NC(=O)c2ccc3c(c2)N(C[C@@H]2CC[C@H]21)C[C@@]1(CCCc2cc(Cl)ccc21)CO3 [Example 95, (1S,3′R,6′R,7′R,8′E,11′S,12′R)-6-chloro-7′-((4-(2,2-difluoroethyl)-1-piperazinyl)methyl)-7′-methoxy-11′,12′-dimethyl-3,4-dihydro-2H,15′H-spiro[naphthalene-1,22′-[20]oxa[13]thia[1,14]diazatetracyclo [14.7.2.0~3,6~.0~19,24~]pentacosa[8,16,18,24]tetraen]-15′-one 13′,13′-dioxide]	338 nM	0.189 nM	
CO[C@]1(CN2CCN(CCF)CC2)/C=C/C[C@H](C)[C@@H](C)S(=O)(=O)NC(=O)c2ccc3c(c2)N(C[C@@H]2CC[C@H]21)C[C@@]1(CCCc2cc(Cl)ccc21)CO3 [Example 96, (1S,3′R,6′R,7′R,8′E,11′S,12′R)-6-chloro-7′-((4-(2-fluoroethyl)-1-piperazinyl)methyl)-7′-methoxy-11′,12′-dimethyl-3,4-dihydro-2H,15′H-spiro[naphthalene-1,22′-[20]oxa[13]thia[1,14]diazatetracyclo [14.7.2.0~3,6~.0~19,24~]pentacosa[8,16,18,24]tetraen]-15′-one 13′,13′-dioxide]	111 nM	0.114 nM	
CCCN1CCN(C[C@@]2(OC)/C=C/C[C@H](C)[C@@H](C)S(=O)(=O)NC(=O)c3ccc4c(c3)N(C[C@@H]3CC[C@H]32)C[C@@]2(CCCc3cc(Cl)ccc32)CO4)CC1 [Example 97, (1S,3′R,6′R,7′R,8′E,11′S,12′R)-6-chloro-7′-methoxy-11′,12′-dimethyl-7′-((4-propyl-1-piperazinyl)methyl)-3,4-dihydro-2H,15′H-spiro[naphthalene-1,22′-[20]oxa[13]thia[1,14]diazatetracyclo [14.7.2.0~3,6~.0~19,24~]pentacosa[8,16,18,24]tetraen]-15′-one 13′,13′-dioxide]	228 nM	0.299 nM	
